Test results taken from patent US12285407B2, “Bis-indolylmethane derivatives and uses thereof” (The University of The West Indies, priority 2018, dated 2025).

Tests used:
Enterobacter cloacae = experiment: Adjuvant broth microdilution (antibiotic MIC with SP-BIM at 50 μg/mL); assay type: cell-based; details: antibiotic alone
[1] = test system: clinical antibiotic resistant isolates of MRSA; experiment: Checkerboard resistance breaking by SP-BIM 13; assay type: cell-based, Staphylococcus aureus; details: for FIC compound / Rescue concentration of SP-BIM 13: SP-BIM 13 with the labelled antibiotic; for Interpretation / Σ FIC: antibiotic + SP-BIM 13; for MIC of antibiotic only: antibiotic alone; for FIC antibiotic: combination with SP-BIM 13; for MIC of antibiotic in combination: with SP-BIM 13 at rescue concentration
clinical strains of MRSA = experiment: Kirby Bauer disc diffusion susceptibility profile; assay type: cell-based, Staphylococcus aureus; details: for Zone of clearance: 35° C., 24 hours, average n=3; for Interpretive standard (resistant/susceptible): zones vs EUCAST breakpoints (Table 30)
Pseudomonas aeruginosa = experiment: Adjuvant broth microdilution (antibiotic MIC with SP-BIM at 50 μg/mL); assay type: cell-based; details: antibiotic alone

SMILES: C[C@H]1c2cccc(O)c2C(=O)C2=C(O)[C@]3(O)C(=O)C(C(N)=O)=C(O)[C@@H](N(C)C)[C@@H]3[C@@H](O)[C@@H]21 [Doxycycline, doxycycline]
- MIC of antibiotic, No Compound (Enterobacter cloacae): 4 µg/mL
- FIC compound ([1]; MRSA strain 1594): 0.3
- Rescue concentration of SP-BIM 13 ([1]; MRSA strain 1594): 63 µg/mL
- Interpretation ([1]; MRSA strain 1594): Synergy (Synergy: FICI≤0.5)
- Σ FIC ([1]; MRSA strain 1594): <0.43
- MIC of antibiotic only ([1]; MRSA strain 1594): 8 µg/mL
- FIC antibiotic ([1]; MRSA strain 1594): 0.125
- MIC of antibiotic in combination ([1]; MRSA strain 1594): 1 µg/mL
- FIC compound ([1]; MRSA strain 5872): 0.064
- Rescue concentration of SP-BIM 13 ([1]; MRSA strain 5872): 16 µg/mL
- Interpretation ([1]; MRSA strain 5872): Synergy (Synergy: FICI≤0.5)
- Σ FIC ([1]; MRSA strain 5872): <0.19
- MIC of antibiotic only ([1]; MRSA strain 5872): 32 µg/mL
- FIC antibiotic ([1]; MRSA strain 5872): 0.125
- MIC of antibiotic in combination ([1]; MRSA strain 5872): 4 µg/mL
- FIC compound ([1]; MRSA strain 7153): 0.128
- Rescue concentration of SP-BIM 13 ([1]; MRSA strain 7153): 32 µg/mL
- Interpretation ([1]; MRSA strain 7153): Synergy (Synergy: FICI≤0.5)
- Σ FIC ([1]; MRSA strain 7153): <0.25
- MIC of antibiotic only ([1]; MRSA strain 7153): 8 µg/mL
- FIC antibiotic ([1]; MRSA strain 7153): 0.125
- MIC of antibiotic in combination ([1]; MRSA strain 7153): 1 µg/mL
- FIC compound ([1]; MRSA strain 7172): 0.128
- Rescue concentration of SP-BIM 13 ([1]; MRSA strain 7172): 32 µg/mL
- Interpretation ([1]; MRSA strain 7172): Synergy (Synergy: FICI≤0.5)
- Σ FIC ([1]; MRSA strain 7172): <0.38
- MIC of antibiotic only ([1]; MRSA strain 7172): 8 µg/mL
- FIC antibiotic ([1]; MRSA strain 7172): 0.250
- MIC of antibiotic in combination ([1]; MRSA strain 7172): 2 µg/mL
- FIC compound ([1]; MRSA strain 7698): 0.128
- Rescue concentration of SP-BIM 13 ([1]; MRSA strain 7698): 32 µg/mL
- Interpretation ([1]; MRSA strain 7698): Synergy (Synergy: FICI≤0.5)
- Σ FIC ([1]; MRSA strain 7698): <0.19
- MIC of antibiotic only ([1]; MRSA strain 7698): 16 µg/mL
- FIC antibiotic ([1]; MRSA strain 7698): 0.063
- MIC of antibiotic in combination ([1]; MRSA strain 7698): 1 µg/mL
- FIC compound ([1]; MRSA strain 10132): 0.032
- Rescue concentration of SP-BIM 13 ([1]; MRSA strain 10132): 8 µg/mL
- Interpretation ([1]; MRSA strain 10132): Synergy (Synergy: FICI≤0.5)
- Σ FIC ([1]; MRSA strain 10132): <0.09
- MIC of antibiotic only ([1]; MRSA strain 10132): 8 µg/mL
- FIC antibiotic ([1]; MRSA strain 10132): 0.063
- MIC of antibiotic in combination ([1]; MRSA strain 10132): 0.5 µg/mL
- Zone of clearance (clinical strains of MRSA; MRSA strain 1594): 12.5 mm
- Interpretive standard (resistant/susceptible) (clinical strains of MRSA; MRSA strain 1594): R
- Zone of clearance (clinical strains of MRSA; MRSA strain 1621): 21.0 mm
- Interpretive standard (resistant/susceptible) (clinical strains of MRSA; MRSA strain 1621): S
- Zone of clearance (clinical strains of MRSA; MRSA strain 5455): 22.5 mm
- Interpretive standard (resistant/susceptible) (clinical strains of MRSA; MRSA strain 5455): S
- Zone of clearance (clinical strains of MRSA; MRSA strain 5872): 15.0 mm
- Interpretive standard (resistant/susceptible) (clinical strains of MRSA; MRSA strain 5872): R
- Zone of clearance (clinical strains of MRSA; MRSA strain 7153): 18.0 mm
- Interpretive standard (resistant/susceptible) (clinical strains of MRSA; MRSA strain 7153): R
- Zone of clearance (clinical strains of MRSA; MRSA strain 7172): 19.0 mm
- Interpretive standard (resistant/susceptible) (clinical strains of MRSA; MRSA strain 7172): R
- Zone of clearance (clinical strains of MRSA; MRSA strain 7698): 10.5 mm
- Interpretive standard (resistant/susceptible) (clinical strains of MRSA; MRSA strain 7698): R
- Zone of clearance (clinical strains of MRSA; MRSA strain 10132): 12.0 mm
- Interpretive standard (resistant/susceptible) (clinical strains of MRSA; MRSA strain 10132): R
- MIC of antibiotic, No Compound (Pseudomonas aeruginosa): 32 µg/mL

SMILES: CC[C@H]1OC(=O)[C@H](C)[C@@H](O[C@H]2C[C@@](C)(OC)[C@@H](O)[C@H](C)O2)[C@H](C)[C@@H](O[C@@H]2O[C@H](C)C[C@H](N(C)C)[C@H]2O)[C@](C)(O)C[C@@H](C)C(=O)[C@H](C)[C@@H](O)[C@]1(C)O [Erythromycin, erythromycin]
- MIC of antibiotic, No Compound (Enterobacter cloacae): >250 µg/mL
- Rescue concentration of SP-BIM 13 ([1]; MRSA strain 5872): 32 µg/mL
- Interpretation ([1]; MRSA strain 5872): Synergy (Synergy: FICI≤0.5)
- Σ FIC ([1]; MRSA strain 5872): <0.14
- MIC of antibiotic only ([1]; MRSA strain 5872): 250 µg/mL
- FIC antibiotic ([1]; MRSA strain 5872): 0.016
- MIC of antibiotic in combination ([1]; MRSA strain 5872): 4 µg/mL
- Rescue concentration of SP-BIM 13 ([1]; MRSA strain 10132): 32 µg/mL
- Interpretation ([1]; MRSA strain 10132): Synergy (Synergy: FICI≤0.5)
- MIC of antibiotic only ([1]; MRSA strain 10132): 250 µg/mL
- FIC antibiotic ([1]; MRSA strain 10132): 0.004
- MIC of antibiotic in combination ([1]; MRSA strain 10132): 1 µg/mL
- Zone of clearance (clinical strains of MRSA; MRSA strain 1594): 19.0 mm
- Interpretive standard (resistant/susceptible) (clinical strains of MRSA; MRSA strain 1594): S
- Zone of clearance (clinical strains of MRSA; MRSA strain 1621): 21.5 mm
- Interpretive standard (resistant/susceptible) (clinical strains of MRSA; MRSA strain 1621): S
- Zone of clearance (clinical strains of MRSA; MRSA strain 5455): 20.5 mm
- Interpretive standard (resistant/susceptible) (clinical strains of MRSA; MRSA strain 5455): S
- Zone of clearance (clinical strains of MRSA; MRSA strain 5872): 0.0 mm
- Interpretive standard (resistant/susceptible) (clinical strains of MRSA; MRSA strain 5872): R
- Zone of clearance (clinical strains of MRSA; MRSA strain 7153): 18.5 mm
- Interpretive standard (resistant/susceptible) (clinical strains of MRSA; MRSA strain 7153): S
- Zone of clearance (clinical strains of MRSA; MRSA strain 7172): 17.5 mm
- Interpretive standard (resistant/susceptible) (clinical strains of MRSA; MRSA strain 7172): S
- Zone of clearance (clinical strains of MRSA; MRSA strain 7698): 17.5 mm
- Interpretive standard (resistant/susceptible) (clinical strains of MRSA; MRSA strain 7698): S
- Zone of clearance (clinical strains of MRSA; MRSA strain 10132): 9.0 mm
- Interpretive standard (resistant/susceptible) (clinical strains of MRSA; MRSA strain 10132): R
- MIC of antibiotic, No Compound (Pseudomonas aeruginosa): >250 µg/mL
